Assay results as given in patent US20250197388A1, “COMPOUNDS, PHARMACEUTICAL COMPOSITIONS AND METHODS FOR TREATING INFLAMMATORY BOWEL DISEASE” (FLAGSHIP PIONEERING INNOVATIONS VI, LLC, priority 2022, published 2025).
“Also recorded” adds a separate entry of the source.

Legend:
Dectin-1b = biological target: T1, Dectin-1b (Homo sapiens, UniProt Q9BXN2); experiment: Dectin-1 assay, HEK-Blue Dectin-1b SEAP reporter cells stimulated with beta-glucan peptide (BGP); type: cell-based; conditions: for Activity: HEK-Blue Dectin-1b cells, compounds at 1, 10 or 30 μM for 6 hours, then BGP 30 μg/mL 16-18 hours, SEAP adjusted by cell viability
T1 construct: host or cells: HEK-Blue Dectin-1b reporter cells (HEK293-derived)
T1 sequence (Q9BXN2 1-201 isoform Q9BXN2-2): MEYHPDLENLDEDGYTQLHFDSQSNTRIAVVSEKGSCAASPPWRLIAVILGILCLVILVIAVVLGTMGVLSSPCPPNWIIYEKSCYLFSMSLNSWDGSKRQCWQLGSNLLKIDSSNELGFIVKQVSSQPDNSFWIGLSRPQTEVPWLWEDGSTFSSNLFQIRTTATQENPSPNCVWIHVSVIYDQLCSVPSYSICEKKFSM
Protocol: Compounds described herein are added to mammalian cells for bioactivity assessment. The HEK-Blue Dectin-1b cells line (InVivoGen) releases a reporter protein (secreted embryonic alkaline phosphatase, SEAP) to the culture supernatant in response to Dectin-1 activation. HEK-Blue reporter cells were grown in DMEM culture media with 10% decomplemented fetal calf serum (InvivoGen, 1% Pen/Strep antibiotic (InvivoGen), 0.2% Normocin antibiotic (InvivoGen). On the day prior to the assay, cells were seeded in a 96 flat-bottom well plate at 50,000 cells/well and further incubated for 20 hours. On the day of the assay cells were incubated with 1 μM, 10 μM or 30 μM of the compounds described herein or with 1 μM of the SYKi IV Dectin-1b Inhibitor (Millipore) or with DMSO (vehicle control) for 6 hours, followed by the addition of beta-glucan peptide (BGP, a Dectin-1 ligand at 30 μg/mL) and incubation for 16-18 hours. After incubation was concluded, the cultures supernatants were collected and Dectin-1 related activity was assessed by measurement of the SEAP-reporter protein presence, using Quanti-Blue assay (Invivogen) and these values were adjusted by the Cell Viability levels that was assessed using the Cell-Titer-Glo2 Reagent (Promega).
Results represent cell number adjusted SEAP levels in a triplicate setting for each condition and cell numbers and viability corrections reflected less than 5% corrections. See, e.g., FIG. 1 for compound A-3.

[1] = Compound interconversion monitored by 1H-NMR in neutral aqueous buffer; type: physicochemical; conditions: 37° C. in the neutral aqueous buffer
Protocol: This examples provide the kinetics of compounds A-2 and A-3. More specifically, A-6 is a mixture of compounds A-2 and A-3 and interconvert in solutions.
In this example, A-6 was combined with […] of Na3PO4, DCl, and D2O at a pH of 7-7.5. This solution was then monitored using 1H-NMR at 37° C.
Interconversion between compounds A-2 and A-3 was seen and monitored for 5 days. See, Table 1.

[2] = tested on: Zymosan-induced production of IL-12p40 in monocyte-derived dendritic cells; experiment: Monocyte derived DC (MoDC) assay, Zymosan-induced IL-12p40 (Luminex/ELISA); type: cell-based, human
Text: (§1) Monocyte derived DC (MoDC) were differentiated from healthy human donor derived CD14+ monocytes. Commercially available freshly prepared Leukopaks were obtained from healthy blood donor and kept refrigerated on ice before spin centrifuged and the pelleted cells are rinsed and resuspended with MACS buffer (Miltenyi Biotec). Next, CD14+ monocytes were purified using MultiMACS™ Cell24 Separator-Plus instrumentation and reagents according to the manufacturer (Miltenyi Biotec) instructions. The resulting purified CD14^+ cell fraction was washed, enumerated, and subsequently cryopreserved for later use. At the experiment first day cryopreserved CD14′ cells were thawed, rinsed with culture media, and then resuspended in culture media principally composed of RPMI (Invitrogen) supplemented with 10% v/v heat inactivated FBS. For generation of MoDC, these CD14^+ cells were enumerated and seeded into 75 cm^2 tissue culture flasks in 30 mL of culture media supplemented with GM-CSF (40-100 ng/mL) and IL-4 (25 ng/mL). Every other day, half of the culture media was replaced with fresh media (containing the same cytokine supplementation) and after 6-7 days of culture, fully differentiated and matured MoDC were obtained as confirmed by conventional Immuno-phenotype markers (levels of expression or absence of surface CD80, CD83, CD86, CD209, HLA-DR, CD14 & CD64) that were verified by flow-cytometry. Fully differentiated (mature) MoDCs, were seeded into 96 flat-well plates and incubated with a various concentration of the compound described herein, or with control solution (DMSO), or with the pharmacologic inhibitors Cyclosporin-A (CsA) and BAY 61-3606 (which is a known inhibitor of Syk kinase) for 6 hours. Next, the MoDC culture well were added with Dectin-1(CLEC7a1)-ligand (Zymosan at 5 μg/mL), or the Toll-like receptor agonist R848, and further incubated for 18-20 hours. After incubation concluded, culture supernatants were collected, and the levels of inflammatory cytokines and chemokines was measured in a triplicate setting for each condition by Luminex® multiplex assay (FIG. 2) or by ELISA (FIG. 3).

[3] = tested on: LPS-stimulated monocyte-derived dendritic cells; experiment: MoDC assay, LPS-stimulated pro-inflammatory cytokines; type: cell-based, human; conditions: for inhibition of pro-inflammatory cytokines (overall): healthy human donor 14 (FIGS. 9A-9H)
[4] = tested on: R848-stimulated monocyte-derived dendritic cells; experiment: MoDC assay, R848-stimulated pro-inflammatory cytokines; type: cell-based, human; conditions: for Gro-α / IL-6 / IL-12p70 / IL-23 / IP-10 / MCP-1 / Mip-1α / TNFα: healthy human donor 14; for inhibition of pro-inflammatory cytokines (overall): healthy human donor 14 (FIGS. 10A-10H)
Text: as §1

[5] = tested on: LPS-induced IRF reporter activity; experiment: IRF assay, THP-1 dual reporter cell line (Lucia luciferase) stimulated with LPS; type: cell-based; conditions: for inhibition of LPS-induced IRF reporter activity: THP-1 dual reporter cells, LPS 25 ng/mL, compounds at 1 μM or 10 μM
Protocol: Compounds described herein are added to mammalian cells for bioactivity assessment. The THP-1 dual reporter cell line (InVivoGen) secretes a reporter protein (Lucia luciferase or LUC) in response to activation by the pro-inflammatory bacterial component lipopolysaccharide (LPS). THP-1 dual reporter cells were grown in RPMI 1640 culture medium with 2 mM L-glutamine, 25 mM HEPES, 10% heat-inactivated fetal bovine serum, 100 µg/ml Normocin antibiotic (InvivoGen), Pen-Strep antibiotic (100 U/ml-100 […], InvivoGen). On the day of the assay, cells were seeded in a 96 flat-bottom well plate at 50,000 cells/well and incubated for 2 hours. Cells were then incubated with 1 μM or 10 μM of the compounds described herein or with 1 μM of KK-16 (Selleck), a potent inhibitor of IκB kinases (IKKs) or with DMSO (vehicle control) for 2 hours, followed by the addition of LPS at 25 ng/mL and incubation for 24 hours. After incubation was concluded, the cultures supernatants were collected and IRF related activity was assessed by measurement of the Lucia luciferase, using Quanti-Luc assay (InvivoGen) and these values were adjusted by the Cell Viability levels that was assessed using the Cell-Titer-Glo2 Reagent (Promega).

C#CCCC1(CCNC(=O)[C@H]2CSC(C3CSC(c4ccccc4O)=N3)N2C)N=N1 (stereo partly drawn) [Compound C-1]
Activity (Dectin-1b): <30 µM

CN1[C@@H](C(=O)O)CS[C@H]1[C@H]1CSC(c2ccccc2)=N1 (single isomer, unassigned) [Compound F-2]
Activity (Dectin-1b): <30 µM

C[C@]1(C(=O)O)CSC(C2CSC(c3ccccc3O)=N2)N1 (stereo partly drawn) [Compound E-1, (4S)-2-(2-(2-hydroxyphenyl)-4,5-dihydrothiazol-4-yl)-4-methyl-thiazolidine-4-carboxylic acid]
Activity (Dectin-1b): <30 µM

CN1[C@@H](C(=O)O)CS[C@@H]1[C@@H]1CSC(c2ccccc2O)=N1 (single isomer, unassigned) [Compound A-2]
time to nearly reach interconversion equilibrium [1]: about 3 hours
inhibition of Zymosan-induced production of IL-12p40 ([2]; MoDC from healthy human donors 1, 2 and 3, 15.5 nM to 1 μM (FIGS. 6A-6C)): inhibition
concentration of maximal inhibition of Zymosan-induced IL-12p40 ([2]; donors 1, 2 and 3, the highest concentration tested): 1 µM
Activity (Dectin-1b): <30 µM

CN1C([C@@H]2CSC(c3ccccc3O)=N2)SC[C@@H]1C(=O)O (stereo partly drawn) [Compound A6, (4S)-2-((S)-2-(2-hydroxyphenyl)-4,5-dihydrothiazol-4-yl)-3-methylthiazolidine-4-carboxylic acid]
Gro-α ([3]; healthy human donor 14): statistically significant decrease
IL-6 ([3]; healthy human donor 14): statistically significant decrease
IL-12p70 ([3]; healthy human donor 14): statistically significant decrease
IL-23 ([3]; healthy human donor 14): statistically significant decrease
IP-10 ([3]; healthy human donor 14): statistically significant decrease
MCP-1 ([3]; healthy human donor 14): statistically significant decrease
Mip-1α ([3]; healthy human donor 14): statistically significant decrease
TNFα ([3]; healthy human donor 14): statistically significant decrease
inhibition of pro-inflammatory cytokines (overall) [3]: inhibit several pro-inflammatory cytokines; also recorded: inhibition of pro-inflammatory cytokines
inhibition of BGP-induced Dectin-1b reporter gene activity / signaling (Dectin-1b; HEK-Dectin-1b cells, range from 1 μM to 30 μM): dose-dependent inhibition
concentration of maximal inhibition of BGP-induced Dectin-1b activity (Dectin-1b; range 1 μM to 30 μM, the maximum concentration tested): 30 µM
Gro-α [4]: statistically significant decrease
IL-6 [4]: statistically significant decrease
IL-12p70 [4]: statistically significant decrease
IL-23 [4]: statistically significant decrease
IP-10 [4]: statistically significant decrease
MCP-1 [4]: statistically significant decrease
Mip-1α [4]: statistically significant decrease
TNFα [4]: statistically significant decrease
inhibition of pro-inflammatory cytokines (overall) [4]: inhibit several pro-inflammatory cytokines; also recorded: inhibition of pro-inflammatory cytokines
inhibition of LPS-induced IRF reporter activity [5]: shows inhibition of LPS-induced IRF reporter activity
statistical significance of inhibition of LPS-induced IRF reporter activity ([5]; tested at 1 μM (FIG. 8B)): meets statistical significance

C#CCCC1(CCNC(=O)[C@H]2CS[C@@H]([C@@H]3CSC(c4ccccc4O)=N3)N2C)N=N1 [Compound C-3, (2S,4S)—N-(2-(3-(but-3-yn-1-yl)-3H-diazirin-3-yl)ethyl)-2-((S)-2-(2-hydroxyphenyl)-4,5-dihydrothiazol-4-yl)-3-methylthiazolidine-4-carboxamide]
Activity (Dectin-1b): <30 µM

C#CCCC1(CCNC(=O)[C@H]2CS[C@H]([C@@H]3CSC(c4ccccc4O)=N3)N2C)N=N1 [Compound C-2, (4S)—N-[2-(3-but-3-ynyldiazirin-3-yl)ethyl]-2-[(4S)-2-(2-hydroxyphenyl)-4,5-dihydrothiazol-4-yl]-3-methyl-thiazolidine-4-carboxamide]
Activity (Dectin-1b): <30 µM

C#CCCC1(CCOC(=O)[C@H]2CSC(C3CSC(c4ccccc4O)=N3)N2C)N=N1 (stereo partly drawn) [Compound D-1]
Activity (Dectin-1b): <30 µM

CN1C([C@H]2CSC(c3ccccc3O)=N2)SC[C@H]1C(=O)O (stereo partly drawn) [Compound I-100, (4R)-2-((R)-2-(2-hydroxyphenyl)-4,5-dihydrothiazol-4-yl)-3-methylthiazolidine-4-carboxylic acid]
Gro-α ([3]; healthy human donor 14): statistically significant decrease
IL-6 ([3]; healthy human donor 14): statistically significant decrease
IL-12p70 ([3]; healthy human donor 14): statistically significant decrease
IL-23 ([3]; healthy human donor 14): statistically significant decrease
MCP-1 ([3]; healthy human donor 14): statistically significant decrease
Mip-1α ([3]; healthy human donor 14): statistically significant decrease
TNFα ([3]; healthy human donor 14): statistically significant decrease
inhibition of pro-inflammatory cytokines (overall) [3]: inhibit several pro-inflammatory cytokines; also recorded: inhibition of pro-inflammatory cytokines
Gro-α [4]: statistically significant decrease
IL-6 [4]: statistically significant decrease
IL-12p70 [4]: statistically significant decrease
IL-23 [4]: statistically significant decrease
IP-10 [4]: statistically significant decrease
MCP-1 [4]: statistically significant decrease
Mip-1α [4]: statistically significant decrease
TNFα [4]: statistically significant decrease
inhibition of pro-inflammatory cytokines (overall) [4]: inhibit several pro-inflammatory cytokines; also recorded: inhibition of pro-inflammatory cytokines
inhibition of LPS-induced IRF reporter activity [5]: shows inhibition of LPS-induced IRF reporter activity
statistical significance of inhibition of LPS-induced IRF reporter activity ([5]; tested at 1 and 10 μM (FIG. 8A)): does not meet statistical significance

CN1C(C2CSC(c3ccccc3O)=N2)SC[C@]1(C)C(=O)O (stereo partly drawn) [Compound B-1, (4S)-2-(2-(2-hydroxyphenyl)-4,5-dihydrothiazol-4-yl)-3,4-dimethylthiazolidine-4-carboxylic acid]
Activity ([2]; MoDC assay): <30 µM
Activity (Dectin-1b): <30 µM

CN1C(C2CSC(c3ccccc3O)=N2)SC[C@@H]1C(=O)O (stereo partly drawn) [Compound A-1, (4S)-2-(2-(2-hydroxyphenyl)-4,5-dihydrothiazol-4-yl)-3-methylthiazolidine-4-carboxylic acid]
Activity (Dectin-1b): <30 µM
